Converted amounts (≈) assume the structure as drawn. Like-named read-outs stand apart in the source and are kept apart here.

In data set [1] the test system is Plasmodium falciparum isolates 3D7, FC27, K+. As to the kind of experiment: Radiometric (3H-hypoxanthine) assay on asexual blood stages of P. falciparum. The format is cell-based. Particulars: for EC50: Plasmodium falciparum, read-out: EC50 against P. falciparum. On the procedure: Using the radiometric assay^(36), the effects of the Lx compounds were examined for antimalarial activity. The Plasmodium falciparum isolates used were 3D7, FC27, K^1 and K^+. These were maintained in human blood group O^+ erythrocytes essentially as described previously using RPM-1640 (HEPES modification) supplemented with 0.25% D-glucose, 0.2% Tess buffer (Sigma Chemical Co, Lt Louis, Mo.) and 10% heat inactivated (56° C., 20 min) human blood group AB serum. Cultures were maintained in tissue culture flasks (Corning, N.Y.) at 37° C. under an atmosphere of 1% 2, 5% CO2 in N2. P. falciparum cultures containing approximately 3.0:% parasitaemia were adjusted to 1×10^8 erythrocytes/ml. To 50 μl of the parasite-erythrocyte culture (5×10^6 erythrocytes) in wells of 96-well microdilution plates wvas added 50 μl of the designated concentration of fatty acid or equivalent amounts of solutions or media. The treated cultures were incubated at 37° C. for 4 h and then pulsed with 50 μl (2.5 μCi) of ^3H-hypoxanthine. After a further 18 h incubation the parasites-erythrocytes were harvested onto glass fibre filter papers using a cell harvester. The amount of radioactivity incorporated was measured in a β-counter. The results have been expressed as % inhibition of parasite growth i.e. the dpm in the fatty acid diluent−dpm in the fatty acid treated cultures/dpm in diluent×100.

Data set [2] can be described thus: Thin film autoxidation of arachidonic acid with compounds 16-19 (HPLC). Particulars: for Autoxidation of arachidonic acid in the presence of the compound (in words): ratio 1:1, with or without AIBN. The source says:
Subsequently, the autoxidation of compounds 16-19 and their effects on the autoxidation of arachidonic acid were investigated. In these experiments, a thin film assay method was employed. For each reaction, arachidonic acid was mixed with one of the synthetic compounds 16, 17, 18 or 19 at 1:1 ratio with or without the radical initiator, azobisisobutyronitrile (AIBN). A reverse phase HPLC method was used to simultaneously measure the relative amounts of arachidonic acid and the synthetic compounds 16, 17, 18 or 19 recovered following 60 or 70 hours or 7 days of thin film autoxidation.

A short description of data set [3]: Petri-dish thin film autoxidation of arachidonic acid with thia fatty acids and sulfides (HPLC). As for the experimental part:
A stock solution in dichioromethane (2 ml) containing arachidonic acid 1 (18 mg) and 3-[(3Z,6Z)-nona-3,6dienylthio]propionic acid 106 (18 mg) was prepared with lauric acid (18 mg) as an internal standard. Samples of the stock solution (100 μl) were added to glass Petri-dishes followed by ethanol (400 μl). After evaporation of the solvent, a well-distributed thin film was formed on each Petri-dish. The Petri-dishes were placed in a desiccator, which was then evacuated, filled with oxygen and stored in the darkness. Dishes were removed from the desiccator after 1, 2, 3, 5 and 7 days. The mixture on each dish was redissolved in diethyl ether and transferred to a 2 ml vial. After evaporation of the solvent, the residue was dissolved in the HPLC mobile phase (100 μl) and 10% of the solution was analysed by HPLC using a reverse phase column (octadecylsilane) (4.6 mm×250 mm, 3 μm) and a refractive index detector.
Autoxidation of arachidonic acid was conducted in the presence of compound 19 and lauric acid. Stock solutions of arachidonic acid, compound 19 and lauric acid in dichloromethane with equal concentrations were added to a 25 ml round-bottomed flask, and the solvent was evaporated to leave a thin film on the internal surface of the flask. The flask was then filled with oxygen and kept in the dark. The percentages of arachidonic acid and compound 19 remaining after 7 days were measured by HPLC. The same assay was carried out simultaneously with several flasks but the results were not reproducible. The variation was attributed to differences in oxygen concentration and the surface area of the thin films formed in the flasks. Therefore, in order to establish a reproducible assay for the analysis of the autoxidation of arachidonic acid, Petri-dishes with uniform size (80 mm in diameter) were used instead of flasks for thin film formation and the oxidation was carried out by placing the Petri-dishes in a dessicator filled with oxygen. To assess this method, thin firms of arachidonic acid with lauric acid as a standard were prepared on six Petri-dishes using identical treatment, and then subjected to oxidation in the same dessicator filled with oxygen. After 24 h, the percentage of arachidonic acid recovered following autoxidation in each Petri-dish was determined by HPLC. […] The advantage of using a Petri-dish over a flask is that the thin films on each Petri-dish are spread over the same area, and each Petri-dish is exposed to oxygen to the same extent.
Using the Petri-dish assay method, the effects of the thia PUFAs and sulfides 106 and 108-111, along with compounds 18, 19 and 3-[(Z,Z,Z)-(octadeca-9,12,15-trienylthio)] propionic acid 112 which were available in the laboratory, on the autoxidation of arachidonic acid, were examined. In addition, the stability of these compounds in the presence of arachidonic acid was also investigated. Arachidonic acid and lauric acid as a standard were mixed with each sulfur compound at different ratios and the mixtures were subjected to thin film autoxidation. The mixtures were analysed by HPLC after 1,2,3,5 and 7 days.

Another data set addresses T1, 15-LO (Glycine max, UniProt P08170).
T1 construct: purchased Sigma Chemical Company
T1 sequence (P08170 1-839): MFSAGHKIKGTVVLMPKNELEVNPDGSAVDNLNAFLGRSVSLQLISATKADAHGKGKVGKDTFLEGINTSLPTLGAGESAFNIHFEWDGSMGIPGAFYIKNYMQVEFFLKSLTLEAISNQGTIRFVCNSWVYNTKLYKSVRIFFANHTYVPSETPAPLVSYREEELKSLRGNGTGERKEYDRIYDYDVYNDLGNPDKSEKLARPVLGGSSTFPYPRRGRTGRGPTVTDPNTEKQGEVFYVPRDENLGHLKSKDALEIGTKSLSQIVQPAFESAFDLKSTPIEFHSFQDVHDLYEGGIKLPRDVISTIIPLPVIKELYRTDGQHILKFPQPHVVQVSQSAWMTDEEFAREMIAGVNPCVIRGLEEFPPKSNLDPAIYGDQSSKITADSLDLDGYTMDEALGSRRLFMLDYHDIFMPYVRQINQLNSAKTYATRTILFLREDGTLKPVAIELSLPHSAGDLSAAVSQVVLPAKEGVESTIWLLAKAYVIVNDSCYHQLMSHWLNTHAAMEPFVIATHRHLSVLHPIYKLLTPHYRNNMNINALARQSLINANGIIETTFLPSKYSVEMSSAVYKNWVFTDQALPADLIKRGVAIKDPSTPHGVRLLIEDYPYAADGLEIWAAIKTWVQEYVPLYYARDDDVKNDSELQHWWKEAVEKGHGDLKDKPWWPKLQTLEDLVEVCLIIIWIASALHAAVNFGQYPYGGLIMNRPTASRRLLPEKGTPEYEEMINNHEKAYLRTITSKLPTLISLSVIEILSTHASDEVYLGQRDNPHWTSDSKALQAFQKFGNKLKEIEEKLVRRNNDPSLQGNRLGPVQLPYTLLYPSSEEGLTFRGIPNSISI
Kind of data set: Effect on 15-LO catalysed oxidation of arachidonic acid. Type of data set: biochemical, soybean.

[4] abbreviates: ratio 2:1, with AIBN at 10% the amount of arachidonic acid, 1 day.
The mark [5] stands for this setting: ratio 2:1, with AIBN at 10% the amount of arachidonic acid, 2 days.
The mark [6] stands for this setting: ratio 2:1, with AIBN at 10% the amount of arachidonic acid, 3 days.
Where [7] appears, read: ratio 2:1, with AIBN at 10% the amount of arachidonic acid, 5 days.
[8] abbreviates: ratio 2:1, with AIBN at 10% the amount of arachidonic acid, 7 days.
Setting [9] is: ratio arachidonic acid:compound 1:1, 1 day.
Setting [10] is: ratio arachidonic acid:compound 1:1, 2 days.
[11] abbreviates: ratio arachidonic acid:compound 1:1, 3 days.
[12] abbreviates: ratio arachidonic acid:compound 1:1, 5 days.
Where [13] appears, read: ratio arachidonic acid:compound 1:1, 7 days.
The mark [14] stands for this setting: ratio arachidonic acid:compound 2:1, 1 day.
Setting [15] is: ratio arachidonic acid:compound 2:1, 2 days.
Where [16] appears, read: ratio arachidonic acid:compound 2:1, 3 days.
The mark [17] stands for this setting: ratio arachidonic acid:compound 2:1, 5 days.
[18] abbreviates: ratio arachidonic acid:compound 2:1, 7 days.
Setting [19] is: ratio arachidonic acid:compound 10:1, 1 day.
Where [20] appears, read: ratio arachidonic acid:compound 10:1, 2 days.
Where [21] appears, read: ratio arachidonic acid:compound 10:1, 3 days.

Take `CC/C=C\C/C=C\C/C=C\C/C=C\C/C=C\C/C=C\CCC(=O)O` [22:6n-3, docosahexaenoic acid, reference compound]: the EC50 amounted to 12 µg/mL (≈ 36.5 µM) in data set [1] (3D7, isolate FC27) and 4 µg/mL (≈ 12.2 µM) in data set [1] (3D7, isolate K+). Besides, the “Reduction of antimalarial activity by human serum” value in data set [1] (compound 20 μg/ml, presence of human serum) is recorded as 85%.
Turning to `CC/C=C\C/C=C\C/C=C\CCCCCCCCOCC(=O)O` [Compound 17, (Z,Z,Z)-(octadeca-9,12,15-trienyloxy) acetic acid], the “Percentage of arachidonic acid recovered in the presence of the compound” value was determined as 44% in data set [2] (ratio 1:1, 10% AIBN 60 h); 92% in data set [2] (ratio 1:1, no additive 70 h); 30% in data set [2] (ratio 1:1, no additive 7 day). Further, the “Percentage of compound recovered (with arachidonic acid)” value in data set [2] (ratio 1:1, 10% AIBN 60 h) was 49%; in data set [2] (ratio 1:1, no additive 70 h) it was 102%; in data set [2] (ratio 1:1, no additive 7 day), 41%. In addition, in data set [2], the “Autoxidation of arachidonic acid in the presence of the compound (in words)” value was “substantial degree of autoxidation”.
For `CCCCC/C=C\C/C=C\C/C=C\C/C=C\CCCCSCCC(=O)O` [Compound 19], the “Percentage of arachidonic acid recovered in the presence of the compound” value is on record as 100% in data set [2] (ratio 1:1, 10% AIBN 60 h); 101% in data set [2] (ratio 1:1, no additive 70 h); 102% in data set [2] (ratio 1:1, no additive 7 day). In addition, the “Percentage of compound recovered (with arachidonic acid)” value in data set [2] (ratio 1:1, 10% AIBN 60 h) came to 96%; in data set [2] (ratio 1:1, no additive 70 h), 98%; in data set [2] (ratio 1:1, no additive 7 day), 96%. Further, in data set [2], the “Autoxidation of arachidonic acid in the presence of the compound (in words)” value is on record as “completely inhibited”. The “Antioxidant effect on autoxidation of arachidonic acid (in words)” value was “effective antioxidants” in data set [3], “almost complete prevention of autoxidation” in data set [3] (1:1 ratio with arachidonic acid) and “very slow over the first 3 days” in data set [3] (compound at one-tenth that of arachidonic acid). Besides, the “Arachidonic acid (%) recovered following autoxidation in the presence of the compound” value in data set [3] (setting [4]) is on record as 100%; in data set [3] (setting [5]), 98%; in data set [3] (setting [6]), 94%; in data set [3] (setting [7]) it was 49%; in data set [3] (setting [8]), 35%; in data set [3] (setting [9]) it was 99%. The “Arachidonic acid (%) recovered following autoxidation in the presence of the compound” value is 100% in data set [3] (setting [10]); 99% in data set [3] (setting [11]); 99% in data set [3] (setting [12]); 98% in data set [3] (setting [13]); 100% in data set [3] (setting [14]); 99% in data set [3] (setting [15]). Further, the “Arachidonic acid (%) recovered following autoxidation in the presence of the compound” value in data set [3] (setting [16]) is reported as 100%; in data set [3] (setting [17]), 98%; in data set [3] (setting [18]), 97%; in data set [3] (setting [19]) it was 99%; in data set [3] (setting [20]), 99%; in data set [3] (setting [21]), 87%. In addition, the “Arachidonic acid (%) recovered following autoxidation in the presence of the compound” value in data set [3] (ratio arachidonic acid:compound 10:1, 5 days) stood at 42%; in data set [3] (ratio arachidonic acid:compound 10:1, 7 days), 17%. In addition, the “Compound (%) recovered following autoxidation with arachidonic acid” value in data set [3] (setting [4]) is given as 98%; in data set [3] (setting [5]), 95%; in data set [3] (setting [6]) it was 80%; in data set [3] (setting [7]), 47%; in data set [3] (setting [8]) it was 43%; in data set [3] (setting [9]) it was 99%. For the same molecule, the “Compound (%) recovered following autoxidation with arachidonic acid” value in data set [3] (setting [10]) was 100%; in data set [3] (setting [11]), 99%; in data set [3] (setting [12]) it was 98%; in data set [3] (setting [13]), 99%; in data set [3] (setting [14]) it was 98%; in data set [3] (setting [15]) it was 96%. For the same molecule, the “Compound (%) recovered following autoxidation with arachidonic acid” value was determined as 96% in data set [3] (setting [16]); 94% in data set [3] (setting [17]); 90% in data set [3] (setting [18]); 95% in data set [3] (setting [19]); 87% in data set [3] (setting [20]); 38% in data set [3] (setting [21]).
Consider `CC/C=C\C/C=C\C/C=C\C/C=C\C/C=C\C/C=C\CCC[N+](=O)[O-]` [Lx5, (a11-z)-1-Nitro-4,7,10,13,16,19-docosahexaene], for which the “Effect on 15-LO catalysed oxidation of AA” value on 15-LO is given as “Nil”.

By EC50 is commonly meant the concentration that produces a half-maximal response.

Values taken from patent US6924309B2 (Children, Youth and Women's Health Service Incorporated, priority 1999, dated 2005).
